Where two headings read alike, the source gives them in different places.
Assays:
Experiment in all cases: TGFα-shedding assay-based GPCR screening with chimeric Gα subunit proteins
Assay type in all cases: cell-based
348 GPCRs [1] = molecular target: T1, 348 GPCRs (Homo sapiens, UniProt P51810); settings: 10µM, Favipiravir 100μM
T1 construct: expressed in transfected cells; host or cells: HEK293A

348 GPCRs [2] = molecular target: T2, 348 GPCRs (Homo sapiens, UniProt Q6QNK2); settings: 10µM, Favipiravir 100μM
T2 construct: expressed in transfected cells; host or cells: HEK293A
T2 sequence (Q6QNK2 26-874): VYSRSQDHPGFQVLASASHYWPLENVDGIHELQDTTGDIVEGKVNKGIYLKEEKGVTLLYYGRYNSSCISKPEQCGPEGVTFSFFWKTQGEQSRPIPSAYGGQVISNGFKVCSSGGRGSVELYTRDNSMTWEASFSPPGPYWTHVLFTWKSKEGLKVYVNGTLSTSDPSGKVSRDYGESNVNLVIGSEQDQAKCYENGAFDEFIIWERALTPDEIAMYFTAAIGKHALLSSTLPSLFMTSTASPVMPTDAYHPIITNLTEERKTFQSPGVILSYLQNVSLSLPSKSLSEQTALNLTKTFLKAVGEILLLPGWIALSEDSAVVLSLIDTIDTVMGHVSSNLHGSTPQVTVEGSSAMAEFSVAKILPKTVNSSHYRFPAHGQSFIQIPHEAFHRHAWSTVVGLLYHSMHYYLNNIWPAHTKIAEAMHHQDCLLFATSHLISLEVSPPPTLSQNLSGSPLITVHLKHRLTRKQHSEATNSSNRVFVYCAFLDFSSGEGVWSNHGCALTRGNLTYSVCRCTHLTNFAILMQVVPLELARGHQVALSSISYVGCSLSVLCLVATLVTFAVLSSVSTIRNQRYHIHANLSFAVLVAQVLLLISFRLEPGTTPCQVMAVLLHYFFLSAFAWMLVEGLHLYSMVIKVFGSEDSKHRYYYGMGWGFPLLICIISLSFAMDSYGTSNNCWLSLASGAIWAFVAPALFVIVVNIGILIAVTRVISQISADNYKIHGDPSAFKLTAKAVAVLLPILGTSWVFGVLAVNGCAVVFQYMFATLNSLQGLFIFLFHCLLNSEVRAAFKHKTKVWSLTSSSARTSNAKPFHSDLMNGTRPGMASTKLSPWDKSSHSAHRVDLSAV

348 GPCRs [3] = molecular target: T3, 348 GPCRs (Homo sapiens, UniProt P60893); settings: 10µM, Favipiravir 100μM
T3 construct: expressed in transfected cells; host or cells: HEK293A

348 GPCRs [4] = molecular target: 348 GPCRs (Homo sapiens, UniProt O60894); settings: 10µM, Favipiravir 100μM
348 GPCRs [5] = molecular target: T4, 348 GPCRs (Homo sapiens, UniProt Q96AM1); settings: 10µM, Favipiravir 100μM
T4 construct: expressed in transfected cells; host or cells: HEK293A

348 GPCRs [6] = molecular target: T5, 348 GPCRs (Homo sapiens, UniProt P49238); settings: GPCR CX3CR1 (chemokine (C-X3-C motif) receptor 1)
T5 construct: expressed in transfected cells; host or cells: HEK293A
T5 sequence (P49238 1-355): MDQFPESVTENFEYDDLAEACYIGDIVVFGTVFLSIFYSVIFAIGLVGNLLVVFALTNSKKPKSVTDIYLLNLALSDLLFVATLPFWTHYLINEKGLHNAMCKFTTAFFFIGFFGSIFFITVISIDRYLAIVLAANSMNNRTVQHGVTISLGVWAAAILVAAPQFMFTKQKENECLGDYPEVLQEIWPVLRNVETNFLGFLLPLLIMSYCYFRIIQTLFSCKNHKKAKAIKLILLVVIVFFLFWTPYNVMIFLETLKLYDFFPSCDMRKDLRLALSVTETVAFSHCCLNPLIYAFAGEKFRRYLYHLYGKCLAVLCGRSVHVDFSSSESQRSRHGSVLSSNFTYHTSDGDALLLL

348 GPCRs [7] = molecular target: T6, 348 GPCRs (Homo sapiens, UniProt P46094)
T6 construct: expressed in transfected cells; host or cells: HEK293A
T6 sequence (P46094 1-333): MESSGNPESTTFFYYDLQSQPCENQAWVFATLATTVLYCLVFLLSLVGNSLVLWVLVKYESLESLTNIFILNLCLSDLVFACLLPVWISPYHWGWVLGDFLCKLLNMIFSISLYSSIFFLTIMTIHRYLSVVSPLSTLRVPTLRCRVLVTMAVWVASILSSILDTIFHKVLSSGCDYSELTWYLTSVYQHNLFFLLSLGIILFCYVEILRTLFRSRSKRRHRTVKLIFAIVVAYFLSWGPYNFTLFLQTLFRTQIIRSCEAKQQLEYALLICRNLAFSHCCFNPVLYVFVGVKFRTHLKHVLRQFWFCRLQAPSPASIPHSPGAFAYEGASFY

348 GPCRs [8] = molecular target: T7, 348 GPCRs (Homo sapiens, UniProt Q8IZF7)
T7 construct: expressed in transfected cells; host or cells: HEK293A
T7 sequence (Q8IZF7 1-708): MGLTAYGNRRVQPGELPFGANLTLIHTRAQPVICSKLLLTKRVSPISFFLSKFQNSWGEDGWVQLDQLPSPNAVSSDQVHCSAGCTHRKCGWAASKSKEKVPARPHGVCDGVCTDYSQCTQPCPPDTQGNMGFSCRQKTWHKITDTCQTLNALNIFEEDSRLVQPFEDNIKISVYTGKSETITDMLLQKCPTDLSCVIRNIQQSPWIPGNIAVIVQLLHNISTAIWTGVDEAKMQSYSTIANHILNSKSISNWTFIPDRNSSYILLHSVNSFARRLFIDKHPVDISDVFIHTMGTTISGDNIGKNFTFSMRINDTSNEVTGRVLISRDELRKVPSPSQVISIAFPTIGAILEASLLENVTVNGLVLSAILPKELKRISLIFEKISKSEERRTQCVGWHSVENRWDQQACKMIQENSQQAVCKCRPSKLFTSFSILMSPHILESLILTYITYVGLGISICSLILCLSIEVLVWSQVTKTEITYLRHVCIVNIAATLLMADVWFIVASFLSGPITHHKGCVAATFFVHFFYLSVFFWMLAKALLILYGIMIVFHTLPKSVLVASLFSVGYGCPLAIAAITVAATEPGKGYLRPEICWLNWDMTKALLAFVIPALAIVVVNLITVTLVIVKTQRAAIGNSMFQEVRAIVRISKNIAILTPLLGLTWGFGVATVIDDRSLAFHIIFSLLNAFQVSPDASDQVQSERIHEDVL

[9] = GPR143 (G Protein-Coupled Receptor 143), read-out: % GPCR activation compared to TPA
[10] = GPR133 (G protein-coupled receptor 133), read-out: % GPCR activation compared to TPA
[11] = GPR85 (G protein-coupled receptor 85), read-out: % GPCR activation compared to TPA
[12] = RAMP1 (receptor-activity-modifying protein 1), read-out: % GPCR activation compared to TPA
[13] = MRGF (MAS-related GPR, member F), read-out: % GPCR activation compared to TPA
[14] = MRGPRF (MAS-related GPR, member F), read-out: % GPCR activation compared to TPA
[15] = GPCR XCR1 (chemokine (C motif) receptor 1/GPR5), read-out: % GPCR activation compared to TPA
[16] = GPCR GPR111 (G-protein-coupled receptor 111 (ADGRF2)), read-out: % GPCR activation compared to TPA
[17] = read-out: % GPCR activation compared to TPA, GPR143 (G Protein-Coupled Receptor 143)
[18] = read-out: % GPCR activation compared to TPA, GPR133 (G protein-coupled receptor 133)
[19] = read-out: % GPCR activation compared to TPA, GPR85 (G protein-coupled receptor 85)
[20] = read-out: % GPCR activation compared to TPA, RAMP1 (receptor-activity-modifying protein 1)
[21] = read-out: % GPCR activation compared to TPA, MRGF (MAS-related GPR, member F)
[22] = read-out: % GPCR activation compared to TPA, MRGPRF (MAS-related GPR, member F)
[23] = read-out: % GPCR activation compared to TPA, GPCR XCR1 (chemokine (C motif) receptor 1/GPR5)
[24] = read-out: % GPCR activation compared to TPA, GPCR GPR111 (G-protein-coupled receptor 111 (ADGRF2))

T1 sequence (P51810 whole entry): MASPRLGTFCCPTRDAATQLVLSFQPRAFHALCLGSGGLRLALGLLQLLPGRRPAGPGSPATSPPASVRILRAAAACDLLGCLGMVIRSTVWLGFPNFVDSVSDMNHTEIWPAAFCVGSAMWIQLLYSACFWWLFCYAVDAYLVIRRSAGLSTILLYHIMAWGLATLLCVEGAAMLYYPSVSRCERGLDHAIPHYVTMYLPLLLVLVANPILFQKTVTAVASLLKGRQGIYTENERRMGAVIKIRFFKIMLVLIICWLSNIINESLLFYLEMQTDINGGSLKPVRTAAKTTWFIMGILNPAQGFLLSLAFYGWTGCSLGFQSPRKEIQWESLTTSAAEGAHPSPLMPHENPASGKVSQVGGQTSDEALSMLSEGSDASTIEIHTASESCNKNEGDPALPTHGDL
T4 sequence (Q96AM1 whole entry): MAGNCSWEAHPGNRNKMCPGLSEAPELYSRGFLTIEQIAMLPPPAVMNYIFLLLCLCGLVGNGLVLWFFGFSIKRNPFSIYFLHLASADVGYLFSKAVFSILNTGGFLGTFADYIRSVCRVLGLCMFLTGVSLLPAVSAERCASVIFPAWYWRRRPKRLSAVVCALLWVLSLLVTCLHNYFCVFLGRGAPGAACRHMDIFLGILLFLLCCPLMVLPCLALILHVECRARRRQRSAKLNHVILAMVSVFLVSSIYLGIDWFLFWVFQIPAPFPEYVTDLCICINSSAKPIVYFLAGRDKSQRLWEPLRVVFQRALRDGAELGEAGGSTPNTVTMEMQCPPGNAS
T3 sequence (P60893 whole entry): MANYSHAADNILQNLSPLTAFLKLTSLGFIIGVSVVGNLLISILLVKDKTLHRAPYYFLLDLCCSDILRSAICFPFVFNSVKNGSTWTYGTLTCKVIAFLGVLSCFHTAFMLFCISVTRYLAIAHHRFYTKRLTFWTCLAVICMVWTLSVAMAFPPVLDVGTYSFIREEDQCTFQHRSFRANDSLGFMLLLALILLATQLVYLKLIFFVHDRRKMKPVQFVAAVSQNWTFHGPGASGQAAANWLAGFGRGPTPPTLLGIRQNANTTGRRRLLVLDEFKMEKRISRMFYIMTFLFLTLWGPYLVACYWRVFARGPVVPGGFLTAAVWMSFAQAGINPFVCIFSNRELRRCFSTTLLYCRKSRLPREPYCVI
Chain of 348 GPCRs (Homo sapiens, UniProt O60894) (O60894 27-148): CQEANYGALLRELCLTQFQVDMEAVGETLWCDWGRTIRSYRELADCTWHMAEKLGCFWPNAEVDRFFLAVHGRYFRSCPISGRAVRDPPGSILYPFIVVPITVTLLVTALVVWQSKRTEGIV

Compound	activation at 100 µM (348 GPCRs [1]; [9])	activation at 100 µM (348 GPCRs [2]; [10])	activation at 100 µM (348 GPCRs [3]; [11])	activation at 100 µM (348 GPCRs [4]; [12])	activation at 100 µM (348 GPCRs [5]; [13])	activation at 100 µM (348 GPCRs [5]; [14])	% GPCR activation compared to TPA (348 GPCRs [6]; 10µM)	activation at 10 µM (348 GPCRs [7]; [15])	activation at 10 µM (348 GPCRs [8]; [16])	activation at 100 µM (348 GPCRs [1]; [17])	activation at 100 µM (348 GPCRs [2]; [18])	activation at 100 µM (348 GPCRs [3]; [19])	activation at 100 µM (348 GPCRs [4]; [20])	activation at 100 µM (348 GPCRs [5]; [21])	activation at 100 µM (348 GPCRs [5]; [22])	activation at 10 µM (348 GPCRs [7]; [23])	activation at 10 µM (348 GPCRs [8]; [24])	% GPCR activation compared to TPA (348 GPCRs [6]; 100μM)	activation at 100 µM (348 GPCRs [7]; GPCR XCR1 (chemokine (C motif) receptor 1/GPR5), 100μM, read-out: % GPCR activation compared to TPA)	activation at 100 µM (348 GPCRs [8]; GPCR GPR111 (G-protein-coupled receptor 111 (ADGRF2)), 100μM, read-out: % GPCR activation compared to TPA)
N#C[C@@]1(c2ccc3c(N)ncnn23)O[C@H](CO)[C@@H](O)[C@H]1O [GS441524]	-1.65%	3.32%	2.04%	-0.968%	4.76%	-0.751%	-0.5209%	-1.92%	-2.52%											
CC(C)OC(=O)[C@H](C)N[P@](=O)(OC[C@H]1O[C@@H](n2ccc(=O)[nH]c2=O)[C@](C)(F)[C@@H]1O)Oc1ccccc1 [sofosbuvir]							0.2471%			-1.1%	-82.3%	-3.71%	-0.995%	-2.71%	-0.0367%	-0.208%	-0.382%			
CCC(CC)COC(=O)[C@H](C)N[P@](=O)(OC[C@H]1O[C@@](C#N)(c2ccc3c(N)ncnn23)[C@H](O)[C@@H]1O)Oc1ccccc1 [remdesivir]							2.076%			-0.638%	3.45%	6.64%	1.07%	0.574%	-0.326%	0.628%	-1.09%			
CC(C)C(=O)OC[C@H]1O[C@@H](n2ccc(NO)nc2=O)[C@H](O)[C@@H]1O [molnupiravir]	-2.51%	-83.1%	-2.83%	-0.742%	-3.54%	-0.471%	-0.5795%	-0.399%	0.307%											
NC(=O)c1nc(F)cnc1O [favipiravir, 6-fluoro-3-hydroxy-2-pyrazinecarboxamide]	-1.86%	2.84%	3.44%	-0.805%	0.745%	-1.13%												0.06344%	0.846%	-1.94%

— article PMC10175918 (Communications Biology, 2023)
